Test results taken from patent publication EP4603105A1, “PHARMACEUTICAL COMPOSITION CONTAINING CYCLIC COMPOUND HAVING SELECTIVE KRAS INHIBITORY EFFECT AGAINST HRAS AND NRAS” (CHUGAI SEIYAKU KABUSHIKI KAISHA, priority 2022, dated 2024).
Where a SMILES comes first, the peptide text is derived from it. Bridges are numbered along the chain shown (N, C = ends). [ ]: non-standard residue; d: D form. The star is where a group is joined. hPhe(3-Cl-4-CF3) = N[C@@H](CCc1ccc(C(F)(F)F)c(Cl)c1)C(=O)O; NPrPhe(4-CF3) = CCCN[C@@H](Cc1ccc(C(F)(F)F)cc1)C(=O)O; NEtPhe(4-Me) = CCN[C@@H](Cc1ccc(C)cc1)C(=O)O; NMeGly(cPent) = CN[C@H](C(=O)O)C1CCCC1; Hyp = O=C(O)[C@@H]1C[C@@H](O)CN1; NMeD = CN[C@@H](CC(=O)O)C(=O)O; NMeL = CN[C@@H](CC(C)C)C(=O)O; Morpholide = C1CN(*)CCO1; NMeA = CN[C@@H](C)C(=O)O; Ac5c = NC1(C(=O)O)CCCC1; Aze = O=C(O)[C@@H]1CCN1; Ac4c = NC1(C(=O)O)CCC1; Sar = CNCC(=O)O

Tests used:
[1] = biological target: HRAS wild-type protein (Homo sapiens, UniProt P01112); assay: Binding to HRAS by surface plasmon resonance (SPR), KD and KD ratio to KRAS
Experimental: (§1) Surface plasmon resonance was used to analyze the binding affinity of compounds for KRAS, NRAS, and HRAS. The apparatus used was Biacore 8K, 8K+, or T200 (GE Healthcare), and the running buffer used was HBS (10 mM HEPES-NaOH, 150 mM NaCl, pH 7.4) containing 1 mM DTT, 10 mM MgCl2, 0.01% Tween 20, 10 µM GDP, and 4% DMSO.
(§2) Biotinylated Avi-tag fusion KRAS, NRAS, and HRAS proteins were expressed in E. coli BL21 (DE3) strains, and after cells were homogenized, they were purified using Streptavidin Mutein Matrix and Superdex 75. After purification, GDP-loaded KRAS, NRAS, and HRAS proteins were immobilized on the surface of Sensor Chip CAP (Cytiva) coated with Biotin CAPture Reagent in an immobilization amount of about 100 to 300 RU. Binding of each compound was evaluated by the Single Cycle Kinetics method, and a running buffer or a compound solution was added to the RAS protein non-immobilized surface and the immobilized surface to obtain a binding response. The flow rate was set to 100 µL/min, and in the compound-adding cycle, compound solutions having different concentrations were intermittently added for 75 seconds each, starting from a low concentration. […] In the blank cycle, a running buffer was intermittently added and not the compound solution. The Biotin CAPture Reagent and RAS proteins were immobilized for each cycle, and at the end of each cycle, the sensor chip was regenerated by the regeneration solution appended to the Biotin CAPture Kit (Cytiva). Measurement was carried out at 30°C.
(§3) The resulting sensorgram was subjected to curve fitting based on a 1:1 binding model on Biacore Insight Evaluation Software or T200 Evaluation Software, and thereby the dissociation constant KD of each compound with respect to KRAS, NRAS, and HRAS was determined. […] Blank indicates a compound from which the KD value with respect to NRAS or HRAS was not obtained.

[2] = system: human lung cancer strain NCI-H441; format: cell-based
Experimental: A test compound was dispensed into a U-bottom 384-well plate as 40 nL serially diluted dimethyl sulfoxide solutions using a liquid handler Echo (LABCYTE). […] This cell suspension was dispensed in an amount of 40 µL per well into a plate containing the test compound, and cultured at 37°C in a 5% carbon dioxide gas incubator. Four days later, 20 µL of CellTiter-Glo (registered trademark) (Promega) was added to each well and […] was measured. […]

[3] = biological target: GDP-bound NRAS wild-type protein (Homo sapiens, UniProt P01111); assay: Binding to NRAS by surface plasmon resonance (SPR), KD and KD ratio to KRAS
Experimental: as §1, §2, §3

[4] = ratio of KD for HRAS wild-type protein to KD for KRAS
[5] = ratio of KD for GDP-bound NRAS wild-type protein to KD for KRAS
[6] = ratio of the KD value with respect to HRAS wild-type protein to the KD value with respect to KRAS
[7] = ratio of the KD value with respect to GDP-bound NRAS wild-type protein to the KD value with respect to KRAS
[8] = ratio of KD value for HRAS wild-type protein to KD value for KRAS (SPR)

Chain of HRAS wild-type protein (P01112 whole entry): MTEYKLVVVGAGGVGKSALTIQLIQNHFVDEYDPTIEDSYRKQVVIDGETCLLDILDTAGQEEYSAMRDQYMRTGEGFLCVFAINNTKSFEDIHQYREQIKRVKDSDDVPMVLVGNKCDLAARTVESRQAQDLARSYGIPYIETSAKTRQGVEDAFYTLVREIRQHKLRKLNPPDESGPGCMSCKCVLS
Chain of GDP-bound NRAS wild-type protein (P01111 whole entry): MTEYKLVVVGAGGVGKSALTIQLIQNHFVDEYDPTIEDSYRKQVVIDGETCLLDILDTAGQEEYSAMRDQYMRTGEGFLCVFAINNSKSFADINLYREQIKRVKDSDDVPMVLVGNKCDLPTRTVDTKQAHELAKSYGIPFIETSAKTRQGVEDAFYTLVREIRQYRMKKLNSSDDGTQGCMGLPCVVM

Row | IC50 [2] | Compound | HRAS /KRAS [1, 4] | NRAS /KRAS [3, 5] | HRAS /KRAS [1, 6] | NRAS /KRAS [3, 7] | HRAS /KRAS [1, 8] | NRAS /KRAS ([3]; ratio of KD value for GDP-bound NRAS wild-type protein to KD value for KRAS (SPR))
1 | 0.138 µM | CCO[C@@H]1C[C@H]2C(=O)NC3(CCC3)C(=O)N(C)[C@@H](C3CCCC3)C(=O)N(C)[C@H](C(=O)N(C)C)CC(=O)N(C)[C@@H](CC3CCCC3)C(=O)N[C@@H]([C@@H](C)CC)C(=O)N(C)CC(=O)N(C)[C@H]3C/C=C\CCN(C3=O)[C@@H](Cc3ccc(C)cc3)C(=O)N(C)CC(=O)N[C@@H](CCc3cc(C)c(C(F)F)c(C)c3)C(=O)N2C1 [PP2675] | A (a compound having 10 or more and less than 20 is denoted as A) | A (a compound having 10 or more and less than 20 is denoted as A) |  |  |  | 
2 | 0.0172 µM | CCO[C@@H]1C[C@H]2C(=O)NC3(CC(C)(C)C3)C(=O)N(C)[C@@H](C(CC)CC)C(=O)N(C)[C@H](C(=O)N3CCCC3)CC(=O)N(C)[C@@H](C)C(=O)N[C@@H]([C@@H](C)CC)C(=O)N(C)CC(=O)N(C)[C@H]3C/C=C\CCN(C3=O)[C@@H](Cc3ccc(C)cc3)C(=O)N(C)CC(=O)N[C@@H](CCc3cc(F)c(C(F)(F)F)c(F)c3)C(=O)N2C1 [PP2145] |  |  | A (a compound having 10 or more and less than 20 is denoted as A) | A (a compound having 10 or more and less than 20 is denoted as A) |  | 
3 | 0.0282 µM | CCC[C@H]1C(=O)N[C@@H]([C@@H](C)CC)C(=O)N(C)CC(=O)N(C)[C@H]2C/C=C\CCN(C2=O)[C@@H](Cc2ccc(C(F)(F)F)cc2)C(=O)N(C)CC(=O)N[C@@H](CCc2cc(F)c3c(c2)CCC3)C(=O)N2C[C@H](OCC)C[C@H]2C(=O)NC2(CC(C)(C)C2)C(=O)N(C)[C@@H](C2CCCC2)C(=O)N(C)[C@H](C(=O)N(C)C)CC(=O)N1C [PP2849] | A (a compound having 10 or more and less than 20 is denoted as A) | A (a compound having 10 or more and less than 20 is denoted as A) |  |  |  | 
4 | 0.0246 µM | CC[C@H](C)[C@@H]1NC(=O)[C@H](CC(C)C)N(C)C(=O)C[C@@H](C(=O)N2CCOCC2)N(C)C(=O)[C@H](CC(C)C)N(C)C(=O)C2(CCCC2)NC(=O)[C@@H]2CCCN2C(=O)[C@H](CCc2ccc(C(F)(F)F)c(Cl)c2)NC(=O)CN(C)C(=O)[C@H](Cc2ccc(C)cc2)N(CC)C(=O)[C@@H]2CCN2C(=O)[C@H](C)N(C)C1=O [PP0016] ([NMeL]I[NMeA][Aze][NEtPhe(4-Me)][Sar][hPhe(3-Cl-4-CF3)]P[Ac5c][NMeL][NMeD]-Morpholide; lactam N-11) | C (A compound having a KD ratio of 0.1 or more and less than 3 is denoted as C) | C (A compound having a KD ratio of 0.1 or more and less than 3 is denoted as C) |  |  |  | 
5 | 1.82 µM | CC[C@H](C)[C@@H]1NC(=O)[C@H](CC(C)C)N(C)C(=O)C[C@@H](C(=O)N2CCOCC2)N(C)C(=O)[C@H](C2CCCC2)N(C)C(=O)C2(CCOCC2)NC(=O)[C@@H]2CCCN2C(=O)[C@H](CCc2cc(F)c(C(F)(F)F)c(F)c2)NC(=O)CN(C)C(=O)[C@H](Cc2ccc(C(F)(F)F)cc2)N2CCCCC[C@@H](C2=O)N(C)C(=O)CN(C)C1=O [PP0502] |  |  | B (a compound having 3 or more and less than 10 is denoted as B) | A (a compound having 10 or more and less than 20 is denoted as A) |  | 
6 | 0.0097 µM | CCC[C@H]1C(=O)N[C@@H]([C@@H](C)CC)C(=O)N2CC[C@H]2C(=O)N(C)[C@H]2C/C=C\CCN(C2=O)[C@@H](Cc2ccc(C(F)(F)F)cc2)C(=O)N(C)CC(=O)N[C@@H](CCc2cc(F)c(C(F)(F)F)c(F)c2)C(=O)N2C[C@H](OCC)C[C@H]2C(=O)NC2(CC(C)(C)C2)C(=O)N(C)[C@@H](C2CCCC2)C(=O)N(C)[C@H](C(=O)N(C)C)CC(=O)N1C [PP1925] |  |  | A (a compound having 10 or more and less than 20 is denoted as A) | A (a compound having 10 or more and less than 20 is denoted as A) |  | 
7 | 0.141 µM | CCCN1C(=O)CN(C)C(=O)[C@@H]2CCN2C(=O)[C@H]([C@@H](C)CC)NC(=O)[C@H](CC(C)C)N(C)C(=O)C[C@@H](C(=O)N2CCOCC2)NC(=O)[C@H](C2CCCC2)N(C)C(=O)C2(CCC2)NC(=O)[C@@H]2C[C@@H](OCC)CN2C(=O)[C@H](CCc2ccc(C(F)(F)F)c(Cl)c2)NC(=O)CN(C)C(=O)[C@@H]1Cc1ccc(C(F)(F)F)cc1 [PP0342] ([NMeL]I[Aze][Sar][NPrPhe(4-CF3)][Sar][hPhe(3-Cl-4-CF3)][Hyp](Et)[Ac4c][NMeGly(cPent)]D-Morpholide; lactam N-11) | B (a compound having 3 or more and less than 10 is denoted as B) | B (a compound having 3 or more and less than 10 is denoted as B) |  |  |  | 
8 | 0.0026 µM | CCC[C@H]1C(=O)N[C@@H]([C@@H](C)CC)C(=O)N(C)CC(=O)N(C)[C@H]2C/C=C\CCN(C2=O)[C@@H](Cc2ccc(C)cc2)C(=O)N(C)CC(=O)N[C@@H](CCc2ccc(C(F)(F)F)c(OC)c2)C(=O)N2C[C@H](C)C[C@H]2C(=O)NC2(CC(C)(C)C2)C(=O)N(C)[C@@H](C2CCCC2)C(=O)N(C)[C@H](C(=O)N(C)CC)CC(=O)N1C [PP1891] |  |  |  |  | A (a compound having 10 or more and less than 20 is denoted as A) | A (a compound having 10 or more and less than 20 is denoted as A)
9 | 0.0393 µM | CCO[C@@H]1C[C@H]2C(=O)NC3(CCC3)C(=O)N(C)[C@@H](C(CC)CC)C(=O)N3CCC[C@@H]3CC(=O)N(C)[C@@H](CC)C(=O)N[C@@H]([C@@H](C)CC)C(=O)N(C)CC(=O)N(C)[C@H]3C/C=C\CCN(C3=O)[C@@H](Cc3ccc(C(F)(F)F)cc3)C(=O)N(C)CC(=O)N[C@@H](CCc3cc(F)c(C(F)(F)F)c(F)c3)C(=O)N2C1 [PP1607] |  |  |  |  | A (a compound having 10 or more and less than 20 is denoted as A) | 
10 | 0.0014 µM | CCO[C@@H]1C[C@H]2C(=O)NC3(CC(C)(C)C3)C(=O)N(C)[C@@H](C3CCCC3)C(=O)N(C)[C@H](C(=O)N(C)C)CC(=O)N(C)[C@H]3CCCCCCc4ccc(cc4)C[C@@H](C(=O)N(C)CC(=O)N[C@@H](CCc4ccc(C(F)(F)F)c(OC)c4)C(=O)N2C1)N1CC/C=C\C[C@@H](C1=O)N(C)C(=O)CN(C1CC1)C(=O)[C@H]([C@@H](C)CC)NC3=O [PP3070] | B (a compound having 3 or more and less than 10 is denoted as B) |  |  |  |  | 
11 | 0.0898 µM | CCC[C@H]1C(=O)N[C@@H]([C@@H](C)CC)C(=O)N(C)CC(=O)N(C)[C@H]2C/C=C\CCN(C2=O)[C@@H](Cc2ccc(C)cc2)C(=O)N(C)CC(=O)N[C@@H](CCc2ccc(Cl)c(OC)c2)C(=O)N2C[C@H](OCC)C[C@H]2C(=O)NC2(CC(C)(C)C2)C(=O)N(C)[C@@H](C(CC)CC)C(=O)N(C)[C@H](C(=O)N(C)C)CC(=O)N1C [PP2791] | A (a compound having 10 or more and less than 20 is denoted as A) |  |  |  |  | 
12 | 0.0177 µM | CCO[C@@H]1C[C@H]2C(=O)NC3(CC(C)(C)C3)C(=O)N(C)[C@@H](C3CCCC3)C(=O)N(C)[C@H](C(=O)N(C)CC)CC(=O)N(C)[C@@H](C3CCC3)C(=O)N[C@@H]([C@@H](C)CC)C(=O)N(C)CC(=O)N(C)[C@H]3C/C=C\CCN(C3=O)[C@@H](Cc3ccc(C(F)(F)F)cc3)C(=O)N(C)CC(=O)N[C@@H](CCc3ccc(C(F)(F)F)c(OC)c3)C(=O)N2C1 [PP1985] |  |  | B (a compound having 3 or more and less than 10 is denoted as B) |  |  | 

Row | Compound | IC50 [2] | HRAS /KRAS [1, 4] | NRAS /KRAS [3, 5] | HRAS /KRAS [1, 6] | NRAS /KRAS [3, 7] | HRAS /KRAS [1, 8] | NRAS /KRAS ([3]; ratio of KD value for GDP-bound NRAS wild-type protein to KD value for KRAS (SPR))
13 | CCO[C@@H]1C[C@H]2C(=O)NC3(CCC3)C(=O)N(C)[C@@H](C3CCCC3)C(=O)N(C)[C@H](C(=O)N3CCCCC3)CC(=O)N(C)[C@H]3CCC/C=C/c4ccc(cc4)C[C@@H](C(=O)N(C)CC(=O)N[C@@H](CCc4cc(F)c(C(F)(F)F)c(F)c4)C(=O)N2C1)N1CC/C=C\C[C@@H](C1=O)N(C)C(=O)CN(C1CC1)C(=O)[C@H]([C@@H](C)CC)NC3=O [PP2954] | 0.0165 µM | A (a compound having 10 or more and less than 20 is denoted as A) | A (a compound having 10 or more and less than 20 is denoted as A) |  |  |  | 
14 | CCC[C@H]1C(=O)N[C@@H]([C@@H](C)CC)C(=O)N(C)CC(=O)N(C)[C@H]2C/C=C\CCN(C2=O)[C@@H](Cc2ccc(C(F)(F)F)cc2)C(=O)N(C)CC(=O)N[C@@H](CCc2ccc(C(F)(F)F)c(OC)c2)C(=O)N2C[C@H](OCC)C[C@H]2C(=O)N(C)C2(CCC2)C(=O)N(C)[C@@H](C2CCCC2)C(=O)N(C)[C@H](C(=O)N2CCCCC2)CC(=O)N1C [PP3103] | 0.0215 µM | A (a compound having 10 or more and less than 20 is denoted as A) |  |  |  |  | 
